In series [1] the test system is human cancer cells [ヒトがん細胞]. Nature of the series: Growth inhibition / cytotoxicity in cancer cell lines (summary over lines). The format is cell-based. As to conditions: for anticancer activity / inhibitory effect on cancer cell lines (in words): 48 h, MTS; for cancer cell selectivity of growth inhibition and cytotoxicity (in words): cancer cells versus normal fibroblasts.

Series [2] has as its system human cancer cells [ヒトがん細胞]. Nature of the series: FACS cell cycle analysis (summary, cell line not specified). It counts as cell-based.
For series [3], the system named is HFF2/T cells (normal human fibroblast line immortalized by introduction of human telomerase) [HFF2/T細胞(ヒトテロメラーゼの導入により不死化した正常ヒト線維芽細胞株)]. Nature of the series: MTS growth inhibition assay, HFF2/T normal fibroblasts. The format is cell-based. Particulars: 48 h. Background: Tetrazolium assays rely on reduction of a dye to a coloured formazan, in cell work by metabolically active cells.

For series [4], the system named is HeLa cells (cervical cancer-derived cell line) [HeLa細胞(子宮頸癌由株細胞株)]. In words: MTS growth inhibition assay, HeLa. It counts as cell-based, human. As to conditions: 48 h.
In series [5] the test system is H1299 cells (lung cancer-derived cell line) [H1299細胞(肺がん由来細胞株)]. In words: MTS growth inhibition assay, H1299. The format is cell-based, human. As to conditions: 48 h.
Series [6] concerns the target T1, Cdt1-geminin binding [Cdt1-geminin結合] (Homo sapiens, UniProt O75496+Q9H211).
T1 construct: made in house
T1 sequence (Q9H211 1-546): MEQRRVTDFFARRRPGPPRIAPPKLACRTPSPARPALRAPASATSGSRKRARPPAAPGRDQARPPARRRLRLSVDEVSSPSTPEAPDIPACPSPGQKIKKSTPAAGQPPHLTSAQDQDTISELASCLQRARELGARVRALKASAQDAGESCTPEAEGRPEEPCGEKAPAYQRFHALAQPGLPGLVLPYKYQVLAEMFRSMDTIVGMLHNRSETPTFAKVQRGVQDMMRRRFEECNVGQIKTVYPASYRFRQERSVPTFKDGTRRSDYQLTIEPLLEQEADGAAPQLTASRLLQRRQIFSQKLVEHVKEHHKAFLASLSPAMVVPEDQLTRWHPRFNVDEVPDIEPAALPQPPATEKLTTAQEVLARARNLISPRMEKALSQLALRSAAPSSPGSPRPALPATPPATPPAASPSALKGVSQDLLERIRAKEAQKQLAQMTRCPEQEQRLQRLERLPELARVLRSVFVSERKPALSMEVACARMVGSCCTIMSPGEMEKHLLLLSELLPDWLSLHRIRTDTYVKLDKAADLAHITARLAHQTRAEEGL
T1 sequence (O75496 1-209): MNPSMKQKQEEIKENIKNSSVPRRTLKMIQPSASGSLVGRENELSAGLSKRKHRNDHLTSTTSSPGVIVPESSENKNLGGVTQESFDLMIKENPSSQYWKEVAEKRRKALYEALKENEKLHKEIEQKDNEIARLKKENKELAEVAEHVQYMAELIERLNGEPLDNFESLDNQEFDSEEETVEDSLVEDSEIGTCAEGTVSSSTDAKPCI
In words: In vitro Cdt1-geminin binding inhibition assay (modified ELISA).

Series [7] deals with T98G cells (glioblastoma-derived cell line) [T98G細胞(グリオブラストーマ由来細胞株)]. In words: MTS growth inhibition assay, T98G. Particulars: 48 h. It counts as cell-based, human.
Series [8] deals with T98G cells [T98G細胞]. Nature of the series: FACS cell cycle analysis, T98G. The format is cell-based, human. Particulars: 10 μM, 24 h.
Series [9] concerns HFF2/T cells [HFF2/T細胞]. In words: FACS cell cycle analysis, HFF2/T normal fibroblasts. It counts as cell-based, human. Particulars: 10 μM, 24 h.

Experimental findings from patent JP2015013808A, “G2/m期停止及び細胞死を誘導するベンゾヒドラジド誘導体” (Kyushu University NUC, priority 2011, dated 2013) are described below.

Each structure is given as a SMILES string. Read-outs that look alike come from different tables or passages of the source.

For `CCn1c2ccccc2c2cc(/C=N/NC(=O)c3ccc(O)cc3O)ccc21` [(E)-N'-((9-エチル-9H-カルバゾール-3-イル)メチレン)-2,4-ジヒドロキシベンゾヒドラジド], in series [1] (certain cancer cell lines, not specified), the “toxicity toward certain cancer cell lines (in words)” value is “ある種のがん細胞株に対する毒性が低下する”.

Consider `CCn1c2ccccc2c2cc(/C=N/NC(=O)c3ccccc3C)ccc21` [HND-007, (E)-N'-((9-Ethyl-9H-carbazol-3-yl)methylene)-2-methylbenzohydrazide], for which the “cell cycle phase inhibited” value in [2] was “主にM期の進行阻害を行っているものと予想される”. In addition, the “growth inhibition / toxicity toward normal fibroblasts or normal cells (in words)” value in series [3] is reported as “正常線維芽細胞に対しても高い毒性を示す”; in series [3] (listed as 2- methyl体) it was “正常細胞に対しても高い毒性を示す場合がある”. In addition, the “anticancer activity / inhibitory effect on cancer cell lines (in words)” value (shortened to “anticancer activity / inhibitory effect”) in series [1] (listed as 2- methyl体) was “がん細胞株に対する抑制効果を高める”; in series [1] (listed as (E)-N'-((9-エチル-9H-カルバゾール-3-イル)メチレン)-2-メチルベンゾヒドラジド) it was “殺細胞性が高い”. In [1], the “cancer cell selectivity of growth inhibition and cytotoxicity (in words)” value is listed as “選択性は低く”.

`NNC(=O)c1ccccc1I` [Y-R2, 2-iodobenzohydrazide, reference compound]: in series [1], the “cancer cell selectivity of growth inhibition and cytotoxicity (in words)” value is listed as “そのような効果は認められなかった”.

Take `CCn1c2ccccc2c2cc(/C=N/NC(=O)c3ccccc3I)ccc21` [NP-10, (E)-N'-((9-Ethyl-9H-carbazol-3-yl)methylene)-2-iodobenzohydrazide]: the “50% growth inhibitory concentration” value in [4], in [5] and in series [7] was “数” throughout. The “cell cycle phase inhibited” value in series [2] and in series [2] (listed as 2-iodo体) was “主にM期の進行阻害” throughout. Also, in [3] (HFF2/T versus HeLa), the “concentration needed for 50% growth inhibition of HFF2/T relative to HeLa” value is roughly 10 fold. Moreover, the “growth inhibition / toxicity toward normal fibroblasts or normal cells (in words)” value in series [3] is given as “正常線維芽細胞に対する増殖抑制効果は低い”. Also, the “Cdt1-geminin binding inhibitory activity (in words)” value in series [6] is listed as “Cdt1-geminin結合の阻害活性は示さない”. For the same molecule, the “effect on cell cycle” value in series [8] is “主にS期で停止”. Also, the “cancer cell selectivity of growth inhibition and cytotoxicity (in words)” value in [1] is listed as “がん細胞選択的に細胞増殖を阻害し、細胞毒性を発揮した”; in [1] (listed as 2-iodo体) it was “がん細胞選択的に細胞増殖を阻害し、細胞毒性を発揮する”; in [1] (listed as 2-ヨード体), “がん細胞に対して選択的に毒性を発揮する”. In [1] (human cancer cells, lines not specified), the “concentration that inhibits growth of human cancer cells” value is on record as “数”. In series [1] (human cancer cells, several μM), the cell death result is on record as “細胞死”. Moreover, the results for the “effect on cell cycle progression” value in [9] and in series [9] (listed as 2-iodo体) were “細胞周期進行に影響を与えなかった” and “正常細胞の細胞周期の進行に影響を与えず”, respectively.

As to `CCn1c2ccccc2c2cc(/C=N/NC(=O)c3cccc(I)c3)ccc21` [NP-13, (E)-N'-((9-Ethyl-9H-carbazol-3-yl)methylene)-3-iodobenzohydrazide], the “anticancer activity / inhibitory effect” value in [1] was “抗がん活性を失ってしまう”; in [1] (listed as 3-iodo体), “抗がん活性が比較的低く”.

On to `CCn1c2ccccc2c2cc(C=O)ccc21` [Y-R1, N-ethylcarbazole-3-carboxaldehyde, reference compound], for which the “cancer cell selectivity of growth inhibition and cytotoxicity (in words)” value in series [1] is “そのような効果は認められなかった”.

`CCn1c2ccccc2c2cc(/C=N/NC(=O)c3ccc(I)cc3)ccc21` [NP-14, (E)-N'-((9-Ethyl-9H-carbazol-3-yl)methylene)-4-iodobenzohydrazide]: the “growth inhibition / toxicity toward normal fibroblasts or normal cells (in words)” value in [3] is reported as “正常線維芽細胞に対しても高い毒性を示す”; in series [3] (listed as 4-iodo体) it was “正常線維芽細胞に対しても高い毒性を示しうる”. The results for the “Cdt1-geminin binding inhibitory activity (in words)” value in series [6] (listed as 4-iodo体) and in series [6] (listed as 4-ヨード体) were “Cdt1-gemininの試験管内での結合を阻害しうる” and “Cdt1-geminin結合阻害活性を持ち”, respectively. Also, the IC50 in series [6] (read-out: 50% binding inhibitory concentration, Cdt1-geminin) was roughly 40 µM. The “anticancer activity / inhibitory effect” value in series [1] was “NP-10と同等あるいはより高い抗がん活性を示す”; in series [1] (listed as 4-iodo体) it was 2-iodo体と同等、あるいはより高い抗がん活性を示す; in series [1] (listed as 4-ヨード体), “抗がん活性も示した”. In addition, in series [1], the “cancer cell selectivity of growth inhibition and cytotoxicity (in words)” value is “がん細胞選択性は低下していた”.
